Reference: article PMC11245619, “Asymmetric total synthesis of polycyclic xanthenes and discovery of a WalK activator active against MRSA” (Nature Communications, 2024)
Converted amounts (≈) assume the structure as drawn.

How the values were obtained:
[1] = system: T1, Staphylococcus aureus ATCC 29213 (SA29213); experiment: microbe, parasite or virus in culture; set-up: broth microdilution MIC (CLSI), growth inhibition read by MTT; conditions: ATCC29213, 24 h, read-out: MIC
T1 construct: ATCC 29213
Method: Antibacterial activities of synthetic compounds in vitro The MICs of the antibacterial agents for all strains were determined using the broth microdilution method according to CLSI guidelines. Wells of 96-well microtiter plates (Nunc, Thermo Fisher Scientific Inc., Roskilde) were inoculated with 100 µL of CAMH broth or CAMH broth with 3% lysed horse blood (S. pneumoniae only), containing serially-diluted antimicrobials and a final inoculum of 5 × 10^5 CFU/mL. The concentration ranges were from 0.0625 to 128 μg/mL for each compound: daptomycin, vancomycin, polymyxin B and oxacillin. The microtiter plates were incubated at 37 °C for 24 h. The MIC was defined as the lowest concentration of an antimicrobial agent that inhibited 90% of bacterial growth determined by the MTT assay (MCE, USA)]. All MIC determinations were performed in duplicate.

[2] = target: T2, WalK (erWalK) (Staphylococcus aureus, UniProt Q6GKS6); experiment: SPR (Biacore 8K, CM5 chip); assay type: binding
T2 construct: extracellular part of the receptor WalK (erWalK, residues 35-182)

[3] = target: T3, WalK (erWalKR86C) (Staphylococcus aureus, UniProt Q6GKS6, R86C); experiment: SPR (Biacore 8K, CM5 chip); assay type: binding
T3 construct: erWalK (residues 35-182) with R86C mutation
T3 sequence (Q6GKS6 35-182 R86C): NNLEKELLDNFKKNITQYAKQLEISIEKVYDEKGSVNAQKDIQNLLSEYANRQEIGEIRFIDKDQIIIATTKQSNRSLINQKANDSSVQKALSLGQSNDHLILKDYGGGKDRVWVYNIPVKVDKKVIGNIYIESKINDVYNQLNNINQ

Compound	MIC [1] [mg/L]	Kd [2] [µM]	Kd [3] [µM]
CN[C@H](CC(C)C)C(=O)N[C@H]1C(=O)N[C@@H](CC(N)=O)C(=O)N[C@H]2C(=O)N[C@H]3C(=O)N[C@H](C(=O)N[C@H](C(=O)O)c4cc(O)cc(O)c4-c4cc3ccc4O)[C@H](O)c3ccc(c(Cl)c3)Oc3cc2cc(c3O[C@@H]2O[C@H](CO)[C@@H](O)[C@H](O)[C@H]2O[C@H]2C[C@](C)(N)[C@H](O)[C@H](C)O2)Oc2ccc(cc2Cl)[C@H]1O [Vancomycin]	1 (≈ 0.69 µM)	–	–
CN(C)c1cc(NC(=O)CNC(C)(C)C)c(O)c2c1C[C@H]1C[C@H]3[C@H](N(C)C)C(O)=C(C(N)=O)C(=O)[C@@]3(O)C(O)=C1C2=O [Tigecycline]	0.312 (≈ 0.534 µM)	–	–
CC(=O)NC[C@H]1CN(c2ccc(N3CCOCC3)c(F)c2)C(=O)O1 [Linezolid]	2.5 (≈ 7.41 µM)	–	–
CC1COc2c(N3CCN(C)CC3)c(F)cc3c(=O)c(C(=O)O)cn1c23 (stereo not drawn) [Ofloxacin]	0.2 (≈ 0.553 µM)	–	–
CC(C)C(=O)c1c(O)c(C(C2=C(O)C(C)(C)C(=O)C(C)(C)C2=O)C(C)C)c(O)c2c1OC1=C(C(=O)C(C)(C)C(=O)C1(C)C)C2C(C)C (stereo not drawn) [compound 22, 22]	0.5 (≈ 0.768 µM)	11.1	73.8
NC[C@H]1O[C@H](O[C@H]2[C@H](O)[C@@H](O[C@H]3O[C@H](CO)[C@@H](O)[C@H](N)[C@H]3O)[C@H](N)C[C@@H]2N)[C@H](O)[C@@H](O)[C@@H]1O [Kanamycin]	10 (≈ 20.6 µM)	–	–
C[C@@H](O)[C@H]1C(=O)N2C(C(=O)O)=C(S[C@@H]3CN[C@H](C(=O)N(C)C)C3)[C@H](C)[C@H]12 [Meropenem]	0.312 (≈ 0.815 µM)	–	–
